Three compounds from ChEMBL document CHEMBL4480443, “Synthesis and biological evaluation of solubilized sulfonamide analogues of the phosphatidylinositol 3-kinase inhibitor ZSTK474” (Bioorg Med Chem, 2019) can be followed below.

Data set [1] can be described thus: physchem. To be noted: aqueous medium with DMSO.
For data set [2] the following is noted: 0.25 h.
A short description of data set [3]: physchem. The conditions noted are these: buffer.

As usually defined, the solubility is the concentration that dissolves in the medium under given conditions. Low readings indicate little dissolved substance, high ones much dissolved substance. As for `COc1cccc2c1nc(C(F)F)n2-c1nc(N2CCOCC2)nc(N2CCN(S(=O)(=O)CCN(C)C)CC2)n1.Cl`, the solubility at 0.25 h in data set [1] came to 24 µg/mL.
Turning to `COc1cccc2c1nc(C(F)F)n2-c1nc(N2CCOCC2)nc(N2CCN(S(C)(=O)=O)CC2)n1`, the solubility entry in data set [2] was “Insoluble”.
`COc1cccc2c1nc(C(F)F)n2-c1nc(N2CCOCC2)nc(N2CCN(S(=O)(=O)CCN(C)C)CC2)n1.CS(=O)(=O)O` had a solubility in data set [3] of more than 59 µg/mL.
